Source: patent US8017612B2, “Piperazine compound and use thereof as a HCV polymerase inhibitor” (priority 2006, dated 2011)
pIC50: −log10 of the molar value.

Columns and labels:
[1] = target: T1, HCV polymerase (NS5B) type 1b (Hepatitis C virus genotype 1b, UniProt P26663); assay: Assay of enzyme (HCV polymerase) inhibitory activity, type 1b enzyme; assay type: biochemical, HCV BK strain (type 1b); settings: HCV polymerase inhibitory activity (IC50), 1b, type 1b enzyme 0.5 μg/ml, 25° C., 60 min
T1 construct: a region encoding NS5B (J Virol 1991 March, 65(3), 1105-13, 544 amino acids after deletion of 47 amino acids on the C-terminal); 6xHis (C); made in house; host or cells: Escherichia coli
Summary of the method: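 Polymerase activity was followed as radiolabelled UTP incorporation by E. coli-expressed, His-tagged NS5B of HCV type 1b lacking its last 47 residues. Conditions: 2 μM UTP, 50 μM other NTPs, Mg2+ buffer at pH 7.5, 25 °C for 60 min. Inhibition relative to compound-free reactions gave IC50.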

[2] = target: T2, HCV polymerase (NS5B) type 1a (Hepatitis C virus genotype 1a, UniProt P26664); assay: Assay of enzyme (HCV polymerase) inhibitory activity, type 1a enzyme; assay type: biochemical, HCV type 1a (cloned from the blood of patients); settings: HCV polymerase inhibitory activity (IC50), 1a, type 1a enzyme 1.5 μg/ml, 25° C., 60 min
T2 construct: made in house; host or cells: Escherichia coli (by the 'similar method' of the 1b enzyme)
Summary of the method: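 IC50 values derive from radioactivity of newly synthesized RNA with versus without test compound. The enzyme was C-terminally truncated type 1a NS5B, 1.5 μg/ml, run 60 min at 25° C with 3H-UTP-labelled nucleotides.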

Row | SMILES | pIC50 [1] | pIC50 [2]
1 | CC(=O)N1CCN(S(=O)(=O)c2ccc(OCC(F)(F)F)cc2)[C@@H](C(=O)NCc2ccc(C(C)C)cc2)C1 [Example 284, (R)-4-acetyl-1-[4-(2,2,2-trifluoro-ethoxy)-benzenesulfonyl]-piperazine-2-carboxylic acid 4-isopropyl-benzylamide] | > 7.00 | 6.00 to 7.00
2 | CC(C)c1ccc(CNC(=O)[C@H]2CN(C(=O)Nc3ccc(C(=O)O)cc3)CCN2S(=O)(=O)c2ccc(C(F)(F)F)cc2)cc1 [Example 285, 4-{[(R)-3-(4-isopropyl-benzylcarbamoyl)-4-(4-trifluoromethyl-benzenesulfonyl)-piperazine-1-carbonyl]-amino}-benzoic acid] | > 7.00 | 6.00 to 7.00
3 | CC(C)c1ccc(CNC(=O)[C@H]2CN(C(=O)Nc3cccc(C(=O)O)c3)CCN2S(=O)(=O)c2ccc(C(F)(F)F)cc2)cc1 [Example 286, 3-{[(R)-3-(4-isopropyl-benzylcarbamoyl)-4-(4-trifluoromethyl-benzenesulfonyl)-piperazine-1-carbonyl]-amino}-benzoic acid] | 6.00 to 7.00 | 6.00 to 7.00
4 | CCCc1ccc(S(=O)(=O)N2CCN(C(C)=O)C[C@@H]2C(=O)NCc2ccc(C(C)C)cc2)s1 [Example 287, (R)-4-acetyl-1-(5-propyl-thiophene-2-sulfonyl)-piperazine-2-carboxylic acid 4-isopropyl-benzylamide] | > 7.00 | > 7.00
5 | COc1ccc(S(=O)(=O)N2CCN(C(C)=O)C[C@@H]2C(=O)NCc2ccc(C(C)C)cc2)cc1-c1nn[nH]n1 [Example 288, (R)-4-acetyl-1-[4-methoxy-3-(2H-tetrazol-5-yl)-benzenesulfonyl]-piperazine-2-carboxylic acid 4-isopropyl-benzylamide] | 6.00 to 7.00 | 6.00 to 7.00
6 | CC(=O)N1CCN(S(=O)(=O)c2ccc(CC(=O)O)s2)[C@@H](C(=O)NCc2ccc(C(C)C)cc2)C1 [Example 289, {5-[(R)-4-acetyl-2-(4-isopropyl-benzylcarbamoyl)-piperazine-1-sulfonyl]-thiophen-2-yl}-acetic acid] | < 6.00 | < 6.00
7 | CCOC(=O)C(=O)N1CCN(S(=O)(=O)c2ccc(C(F)(F)F)cc2)[C@@H](C(=O)NCc2ccc(C(C)C)cc2)C1 [Example 290, [(R)-3-(4-isopropyl-benzylcarbamoyl)-4-(4-trifluoromethyl-benzenesulfonyl)-piperazin-1-yl]-oxo-acetic acid ethyl ester] | 6.00 to 7.00 | < 6.00
8 | CC(=O)N1CCN(S(=O)(=O)c2ccc(C(C)C)cc2)[C@@H](C(=O)NCc2ccc(C(C)C)cc2C)C1 [Example 291, (R)-4-acetyl-1-(4-isopropyl-benzenesulfonyl)-piperazine-2-carboxylic acid 4-isopropyl-2-methyl-benzylamide] | > 7.00 | > 7.00
9 | CC(=O)N1CCN(S(=O)(=O)c2ccc(C(C)C)cc2)[C@@H](C(=O)NCc2ccc(C(C)C)cc2F)C1 [Example 292, (R)-4-acetyl-1-(4-isopropyl-benzenesulfonyl)-piperazine-2-carboxylic acid 2-fluoro-4-isopropyl-benzylamide] | > 7.00 | 6.00 to 7.00
10 | CC(=O)N1CCN(S(=O)(=O)c2ccc(C(C)C)cc2)[C@@H](C(=O)NCc2ccc(C(C)(F)F)cc2)C1 [Example 293, (R)-4-acetyl-1-(4-isopropyl-benzenesulfonyl)-piperazine-2-carboxylic acid 4-(1,1-difluoro-ethyl)-benzylamide] | 6.00 to 7.00 | 6.00 to 7.00
11 | CCCc1ccc(CNC(=O)[C@H]2CN(C(C)=O)CCN2S(=O)(=O)c2ccc(C(C)C)cc2)cc1 [Example 294, (R)-4-acetyl-1-(4-isopropyl-benzenesulfonyl)-piperazine-2-carboxylic acid 4-propyl-benzylamide] | > 7.00 | > 7.00
12 | CCCc1ccc(S(=O)(=O)N2CCN(C(=O)Nc3ccncc3)C[C@@H]2C(=O)NCc2ccc(C(C)C)cc2)cc1 [Example 295, (R)-4-(4-propyl-benzenesulfonyl)-piperazine-1,3-dicarboxylic acid 3-(4-isopropyl-benzylamide) 1-pyridin-4-ylamide] | > 7.00 | > 7.00
13 | CCCc1ccc(S(=O)(=O)N2CCN(c3nc(C(=O)OCC)cs3)C[C@@H]2C(=O)NCc2ccc(C(C)C)cc2)cc1 [Example 296, 2-[(R)-3-(4-isopropyl-benzylcarbamoyl)-4-(4-propyl-benzenesulfonyl)-piperazin-1-yl]-thiazole-4-carboxylic acid ethyl ester] | > 7.00 | > 7.00
14 | CCCc1ccc(S(=O)(=O)N2CCN(c3nc(C)c(C(=O)OC)s3)C[C@@H]2C(=O)NCc2ccc(C(C)C)cc2)cc1 [Example 297, 2-[(R)-3-(4-isopropyl-benzylcarbamoyl)-4-(4-propyl-benzenesulfonyl)-piperazin-1-yl]-4-methyl-thiazole-5-carboxylic acid methyl ester] | > 7.00 | > 7.00
15 | CCCc1ccc(S(=O)(=O)N2CCN(c3nc(C(=O)O)cs3)C[C@@H]2C(=O)NCc2ccc(C(C)C)cc2)cc1 [Example 298, 2-[(R)-3-(4-isopropyl-benzylcarbamoyl)-4-(4-propyl-benzenesulfonyl)-piperazin-1-yl]-thiazole-4-carboxylic acid] | 6.00 to 7.00 | 6.00 to 7.00
16 | CCCc1ccc(S(=O)(=O)N2CCN(c3nc(C)c(C(=O)O)s3)C[C@@H]2C(=O)NCc2ccc(C(C)C)cc2)cc1 [Example 299, 2-[(R)-3-(4-isopropyl-benzylcarbamoyl)-4-(4-propyl-benzenesulfonyl)-piperazin-1-yl]-4-methyl-thiazole-5-carboxylic acid] | > 7.00 | > 7.00
17 | CC(C)c1ccc(CNC(=O)[C@H]2CN(C(=O)Nc3ccncn3)CCN2S(=O)(=O)c2ccc(C(F)(F)F)cc2)cc1 [Example 300, (R)-4-(4-trifluoromethyl-benzenesulfonyl)-piperazine-1,3-dicarboxylic acid 3-(4-isopropyl-benzylamide) 1-pyrimidin-4-ylamide] | > 7.00 | > 7.00
18 | CC(C)c1ccc(CNC(=O)[C@H]2CN(C(=O)Nc3ccnc(C(=O)OC(C)(C)C)c3)CCN2S(=O)(=O)c2ccc(C(F)(F)F)cc2)cc1 [Example 301, 4-{[(R)-3-(4-isopropyl-benzylcarbamoyl)-4-(4-trifluoromethyl-benzenesulfonyl)-piperazine-1-carbonyl]-amino}-pyridine-2-carboxylic acid tert-butyl ester] | > 7.00 | > 7.00
19 | COC(=O)c1cnc(N2CCN(S(=O)(=O)c3ccc(C(F)(F)F)cc3)[C@@H](C(=O)NCc3ccc(C(C)C)cc3)C2)s1 [Example 302, 2-[(R)-3-(4-isopropyl-benzylcarbamoyl)-4-(4-trifluoromethyl-benzenesulfonyl)-piperazin-1-yl]-thiazole-5-carboxylic acid methyl ester] | > 7.00 | 6.00 to 7.00
20 | COC(=O)c1ccc(N2CCN(S(=O)(=O)c3ccc(C(F)(F)F)cc3)[C@@H](C(=O)NCc3ccc(C(C)C)cc3)C2)nc1 [Example 303, 6-[(R)-3-(4-isopropyl-benzylcarbamoyl)-4-(4-trifluoromethyl-benzenesulfonyl)-piperazin-1-yl]-nicotinic acid methyl ester] | > 7.00 | > 7.00
